This note sets out measurements from ChEMBL document CHEMBL3244163, “Antifungal agents. 5. Chemical modification of antibiotics from Polyangium cellulosum var. fulvum. Alcohol, ketone, aldehyde, and oxime analogues of ambruticin” (1979).

Converted amounts (≈) assume the structure as drawn. The source made the active and inactive calls. No cut-off for these calls is given here. Some results are limits rather than exact numbers.

The subject of assay [1] is Histoplasma capsulatum. In words: Antifungal activity against Histoplasma capsulatum assessed as growth inhibition after 3 days by standard broth dilution technique. The class given is functional. To be noted: 72 h.
Assay [2] deals with Streptococcus pyogenes. As to the kind of experiment: Antibacterial activity against Streptococcus pyogenes by standard broth dilution technique. In kind it is functional, organism-based.
The subject of assay [3] is Candida albicans. In words: Antifungal activity against Candida albicans by standard broth dilution technique. The class given is functional, organism-based. For orientation: Dilution methods test growth across graded concentrations, often in twofold steps.
A short description of assay [4]: Antifungal activity against Microsporum fulvum assessed as growth inhibition after 3 days by standard broth dilution technique. The class given is functional. The note with it: Arthroderma fulvum.

On to `CC[C@H]1O[C@@H](/C(C)=C/[C@H](C)/C=C/[C@H]2[C@@H](C)[C@@H]2/C=C/[C@@H]2O[C@H](CC(=O)OC)C[C@@H](O)[C@H]2O)CC=C1C`, for which the MIC in assay [1] and in assay [4] was 0.39 µg/mL (≈ 0.798 µM) throughout. The outcome in assay [2] and in assay [3] was inactive.
For `CC[C@H]1O[C@@H](/C(C)=C/[C@H](C)/C=C/[C@H]2[C@@H](C)[C@@H]2/C=C/[C@@H]2O[C@H](CC(O)C(C)(C)C)C[C@H](O)[C@H]2O)CC=C1C` (stereo partly drawn), the figures for the MIC in assay [1] and in assay [4] were 6.25 µg/mL (≈ 12.1 µM) and above 50 µg/mL, respectively. The outcome in assay [2] and in assay [3] was inactive.
As for `CC[C@H]1O[C@@H](/C(C)=C/[C@H](C)/C=C/[C@H]2[C@@H](C)[C@@H]2/C=C/[C@@H]2O[C@H](CC(=O)O)C[C@H](O)[C@H]2O)CC=C1C` [AMBRUTICIN], the MIC in assay [1] came out at 0.39 µg/mL (≈ 0.822 µM); in assay [4] it was 0.098 µg/mL (≈ 0.206 µM). Besides, the result in assay [2] and in assay [3] was inactive.
Regarding `CC[C@H]1O[C@@H](/C(C)=C/[C@H](C)/C=C/[C@H]2[C@@H](C)[C@@H]2/C=C/[C@@H]2O[C@H](CC(O)(CC)CC)C[C@H](O)[C@H]2O)CC=C1C`, the figures for the MIC in assay [1] and in assay [4] were 1.56 µg/mL (≈ 3.02 µM) and 3.12 µg/mL (≈ 6.04 µM), respectively. For the same compound, the outcome in assay [2] and in assay [3] was inactive.
Take `CC[C@H]1O[C@@H](/C(C)=C/[C@H](C)/C=C/[C@H]2[C@@H](C)[C@@H]2/C=C/[C@@H]2O[C@H](CCO)C[C@](C)(O)[C@H]2O)CC=C1C`: the MIC in assay [1] and in assay [4] was 0.78 µg/mL (≈ 1.64 µM) in each case. The result in assay [2] and in assay [3] was inactive.
On to `CC[C@H]1O[C@@H](/C(C)=C/[C@H](C)/C=C/[C@H]2[C@@H](C)[C@@H]2/C=C/[C@@H]2O[C@H](CCO)C/C(=N\O)[C@H]2O)CC=C1C`, for which the figures for the MIC in assay [1] and in assay [4] were 0.098 µg/mL (≈ 0.207 µM) and 0.195 µg/mL (≈ 0.412 µM), respectively. For the same compound, the result in assay [2] and in assay [3] was inactive.
Turning to `CC[C@H]1O[C@@H](/C(C)=C/[C@H](C)/C=C/[C@H]2[C@@H](C)[C@@H]2/C=C/[C@@H]2O[C@H](CCO)CC(=O)[C@H]2O)CC=C1C`, the MIC was 6.25 µg/mL (≈ 13.6 µM) in assay [1] and 0.78 µg/mL (≈ 1.7 µM) in assay [4]. Moreover, the result in assay [2] and in assay [3] was inactive.
For `CC[C@H]1O[C@@H](/C(C)=C/[C@H](C)/C=C/[C@H]2[C@@H](C)[C@@H]2/C=C/[C@@H]2O[C@H](CCOC(=O)Nc3ccc(Cl)cc3)C[C@H](OC(=O)Nc3ccc(Cl)cc3)[C@H]2OC(=O)Nc2ccc(Cl)cc2)CC=C1C`, the outcome in assay [2] and in assay [3] was inactive. Further, the MIC in assay [4] was above 50 µg/mL.
Consider `CCC(O)C[C@@H]1C[C@H](O)[C@@H](O)[C@H](/C=C/[C@H]2[C@H](C)[C@@H]2/C=C/[C@@H](C)/C=C(\C)[C@H]2CC=C(C)[C@@H](CC)O2)O1` (stereo partly drawn), for which, in assay [1], the MIC was determined as 0.78 µg/mL (≈ 1.6 µM). Further, the outcome in assay [2] and in assay [3] was inactive.
For the compound `CC[C@H]1O[C@@H](/C(C)=C/[C@H](C)/C=C/[C@H]2[C@@H](C)[C@@H]2/C=C/[C@@H]2O[C@H](CC(=O)OC)C/C(=N/O)[C@H]2O)CC=C1C`, in assay [1], the MIC stood at 0.78 µg/mL (≈ 1.55 µM). For the same compound, the result in assay [2] and in assay [3] was inactive.
Consider `CC[C@H]1O[C@@H](/C(C)=C/[C@H](C)/C=C/[C@H]2[C@@H](C)[C@@H]2/C=C/[C@@H]2O[C@H](CCOC(=O)Nc3ccc(Br)cc3)C[C@H](OC(=O)Nc3ccc(Br)cc3)[C@H]2OC(=O)Nc2ccc(Br)cc2)CC=C1C`, for which the outcome in assay [2] and in assay [3] was inactive. Besides, the MIC in assay [4] is above 50 µg/mL.
On to `CC[C@H]1O[C@@H](/C(C)=C/[C@H](C)/C=C/[C@H]2[C@@H](C)[C@@H]2/C=C/[C@@H]2O[C@H](CCOC(=O)Nc3ccccc3)C[C@H](OC(=O)Nc3ccccc3)[C@H]2OC(=O)Nc2ccccc2)CC=C1C`, for which the result in assay [2] and in assay [3] was inactive. In addition, the MIC in assay [4] is above 50 µg/mL.

What is called MIC is the least concentration at which growth counts as inhibited.
